Measurements as given in patent US20240277744A1, “TREATMENT OF CHEMORESISTANT CANCER CELLS” (Cornell University, priority 2023, published 2024).
Counter-ions that a name gives are not always drawn.

How the values were obtained:
A549 cell line = test: Flow cytometry of TRA-1-81+ cells; type: cell-based
Description: (§1) Flow cytometry. TRA-1-60 PerCP-efluor710 (eBioscience, 1:50) and TRA-1-81 PE (eBioscience, 1:100) were used. Cells were blocked with 5% FBS plus mouse IgM isotype control antibody (eBioscience, 1:100) at room temperature for 15 min, then stained on ice for 30 min. Stained cells were resuspended in PBS containing 300 nM DAPI and proceeded to analysis or sorting. Cell apoptosis was analyzed with FITC-AnnexinV labeling reagent (BD). Flow cytometry analysis was carried out on BD FACS Calibur with FlowJo 9.8 software. Sorting was performed with FACSVantage SE (Becton Dickinson).

TRA-1-81+ SW1990 cells = test: Flow cytometry of TRA-1-81+ cells; type: cell-based; conditions: SW1990; 5 days; GEM 50, 100 or 250 nM; flow cytometry
Description: as §1

RKO cell line = test: Flow cytometry of TRA-1-81+ cells; type: cell-based
Description: as §1

HCT116 cell line = test: Flow cytometry of TRA-1-81+ cells; type: cell-based; conditions: HCT116; flow cytometry
Description: as §1

HT29 cell line = test: Flow cytometry of TRA-1-81+ cells; type: cell-based
Description: as §1

DU145 cell line = test: Flow cytometry of TRA-1-81+ cells; type: cell-based; conditions: DU145; flow cytometry
Description: as §1

SW1990 xenograft tumors [1] = test: GEM-resistant SW1990 xenograft passaged in nude mice; conditions: 50 mg/kg GEM i.p. twice a week, 3 passages in vivo, vs PBS control
Description: Whether the epitope of TRA-1-60 and TRA-1-81 antibodies also enriches CCCs in vivo, with xenograft tumors in nude mice derived from SW1990 cells implanted subcutaneously, was examined. Mice carrying tumors were randomly separated into two groups: one was treated with 50 mg/kg GEM via intraperitoneal injection twice a week for 4 weeks; the other was treated with the same volume of PBS as control. After 3 passages in vivo (˜6 months), the control and GR xenograft tumors were analyzed with immunofluorescence (FIG. 1K).
(§2) Tissue samples were fixed with 4% paraformaldehyde overnight at 4° C., washed with 70% ethanol and then embedded in paraffin. After De-paraffin and rehydration, antigen retrieval was preceded in hot antigen retrieving buffer with a normal-pressure steamer for 30 min. blocking was proceeded 1 hour at room temperature in PBS containing 1% horse serum. Primary antibody was stained overnight at 4° C. in PBS plus 0.5% Triton X-100 and 5% horse serum. Secondary antibody was incubated at room temperature for 1.5 hours.

SW1990 cells = test: Cell viability (DAPI nuclei count, high content imaging); type: cell-based; conditions: Homo sapiens; parental SW1990; read-out: IC50 for GEM (viability)
Description: (§3) Cell viability, colony formation, sphere formation and growth curve. To quantify viability, cells were plated into 96-well plates (6000/well) one night before treatment. […] After fixation, cell nuclei were stained with DAPI (Invitrogen). Plates were analyzed using MetaXpress High Content Image Acquisition and Analysis System (Molecular Devices).

[2] = system: primary human xenograft tumor; test: Patient derived pancreatic adenocarcinoma xenograft in nude mice; type: in vivo; conditions: 50 mg/kg GEM twice weekly, one month; not in control tumors
Description: To examine whether TRA-1-60 expression correlates with chemotherapy treatment in primary tumors, a human pancreatic adenocarcinoma specimen was freshly collected after surgery, transplanted to nude mice and expanded subcutaneously. Mice carrying the primary human xenograft tumor were separated into two groups: one group was treated with 50 mg/kg GEM twice weekly while the other group received the same volume of PBS as control. After one month, xenograft tumors were stained with TRA-1-60 antibody. TRA-1-60 staining was detected in GEM-treated xenograft tumors but not control xenograft tumors (FIG. 7C, D), confirming that TRA-1-60 expression is positively correlated with chemoresistance.
as §2

SW1990 xenograft tumors [3] = test: Luciferase-labeled SW1990 xenograft in nude mice; type: in vivo
Description: CYM suppresses TRA-1-60 expression and blocks tumor growth in vivo. Next it was sought to validate the effects of CYM in vivo, using a xenograft model with luciferase-labeled SW1990 cells propagated in nude mice. Tumor-harboring mice were separated into 4 groups and treated with PBS (control), 2 mg/kg CYM, 50 mg/kg GEM, or 2 mg/kg CYM plus 50 mg/kg GEM through intraperitoneal injections twice per week. Luciferase intensity was quantified twice per week and normalized with the value obtained from the starting day. […] Consistent with imaging, of the four groups, mice treated with GEM plus CYM generated xenograft tumors with the smallest size (FIG. 6C) and weight (FIG. 6D).
as §2
Mouse Procedures. To assess in vivo effects of Cymarin (CYM), Luciferase-labelled SW1990 cells were transplanted to nude mice subcutaneously. Each mouse received four injections (5×10^5 cells/site). 12 days later, mice were randomly separated into 4 groups and treated with PBS (control), GEM (50 mg/kg bodyweight), CYM (2 mg/kg bodyweight) or GEM (50 mg/kg bodyweight) plus CYM (2 mg/kg bodyweight) twice weekly via intraperitoneal injection. Image acquisition was performed twice weekly with Xtreme Optical and X-ray small animal imaging system. Luciferin potassium salt (Regis), substrate of luciferase, was applied at 2 mg/25 g bodyweight in 150 μl PBS. Isoflurane (Henry Schein) was used for anesthesia during imaging.

SW1990GR cells = test: Cell viability (DAPI nuclei count, high content imaging); type: cell-based; conditions: GEM-resistant line, read-out: IC50 for GEM (viability)
Description: To establish GR cell lines, cells were first cultured with 10 nM GEM till cell growth became stable. […] Once cell growth became stable in 100 nM GEM, cells were expanded in 100 nM GEM and used in assays.
as §3

TRA-1-60+ SW1990GR cells = test: High content screen / immunofluorescent staining of TRA-1-60+ cells; type: cell-based; conditions: SW1990GR
Description: Immunofluorescent staining. Primary antibodies were TRA-1-60 antibody (BD, 1:200), biotin conjugated TRA-1-60 antibody (eBioscience, 1:200). Secondary antibodies were donkey anti-mouse Alexa-efluor594 (Life technologies, 1:500) or streptavidin conjugated Alexa Fluor® 594 (Life technologies, 1:200).
Cells were fixed with 10% formalin for 20 min at room temperature. After 1 hour blocking in PBS with 5% horse serum and 0.3% triton-X100, primary antibodies were added to cells and incubated overnight at 4° C. Secondary antibody incubation was 1.5 hours at room temperature.
Chemical library screening. The Prestwick library of FDA approved drugs (˜1280 chemicals) plus a collection of drugs in clinical trials was used for the screen on SW1990GR cells.
For screening, SW1990GR cells were plated in 384-well plates (5000 cells/well). After overnight incubation, chemicals were added at 1 μM or 10 μM in duplicate. After 5 days of treatment, plates were stained with TRA-1-60 antibody and analyzed with MetaXpress High Content Image Acquisition and Analysis System (Molecular Devices). Wells treated with DMSO were set as control. The reduction was calculated by subtracting the percentage of TRA-1-60^+ cells in the chemical-treated wells from that of control wells. Standard deviation of TRA-1-60^+ percentage in control wells was calculated and 3-fold of this value was taken as threshold to pick up the primary hit.

CCc1c2c(nc3ccc(OC(=O)N4CCC(N5CCCCC5)CC4)cc13)-c1cc3c(c(=O)n1C2)COC(=O)[C@]3(O)CC [CPT-11, Irinotecan hydrochloride]
TRA-1-81+ cell population after acute drug treatment (A549 cell line): significant enhancement
TRA-1-81+ cell population after acute drug treatment (TRA-1-81+ SW1990 cells): highly enriched

Nc1ccn([C@@H]2O[C@H](CO)[C@@H](O)C2(F)F)c(=O)n1 [GEM, Gemcitabine hydrochloride]
TRA-1-81+ cell population after acute GEM treatment (RKO cell line): significant increase
TRA-1-81+ cell population after acute drug treatment (A549 cell line): significant increase
TRA-1-81+ cell population after acute GEM treatment (HCT116 cell line): significant increase
TRA-1-81+ cell population after acute GEM treatment (HT29 cell line): significant increase
TRA-1-81+ cell population after acute GEM treatment (DU145 cell line): significant increase
TRA-1-81+ cell population after acute drug treatment (TRA-1-81+ SW1990 cells): significant increase
percentage of TRA-1-60+ cells in GR xenograft tumors (SW1990 xenograft tumors [1]): significantly increased
IC50 (SW1990 cells): 9.6 ± 3.2 nM
TRA-1-60 staining in patient derived xenograft tumors [2]: detected
tumor growth (luciferase intensity) (SW1990 xenograft tumors [3]; 3 weeks, i.p. twice per week, GEM 50 mg/kg, CYM 2 mg/kg): grew more slowly
percentage of TRA-1-60+ cells in xenograft tumors (SW1990 xenograft tumors [3]; GEM-treated tumors without CYM, immunofluorescence): ~27%
IC50 (SW1990GR cells): 59.4 ± 5.3 nM

C[C@@H]1O[C@@H](O[C@H]2C[C@@H](O)[C@]3(CO)[C@H]4[C@H](O)C[C@]5(C)[C@@H](C6=CC(=O)OC6)CC[C@]5(O)[C@@H]4CC[C@]3(O)C2)[C@H](O)[C@H](O)[C@H]1O [Ouabain]
validation of primary hit (TRA-1-60+ SW1990GR cells): able to be validated

Nc1nc2[nH]cc(CCc3ccc(C(=O)N[C@@H](CCC(=O)O)C(=O)O)cc3)c2c(=O)[nH]1 [PMX, Pemetrexed disodium heptahydrate]
TRA-1-81+ cell population after acute drug treatment (A549 cell line): significant enhancement
TRA-1-81+ cell population after acute drug treatment (TRA-1-81+ SW1990 cells): highly enriched
